Source: paper PMC11790763, “A Peptide Motif Covering Splice Site B in Neuroligin-1 Binds to Aβ and Acts as a Neprilysin Inhibitor” (Molecular Neurobiology, 2024)
Bridges are numbered along the chain shown (N, C = ends). Roman numbers before positions name the chains, in order. Where no end group is shown, it is not given here.

What was measured:
[1] = biological target: T1, brain-derived NEP (Mus musculus, UniProt Q61391); assay: Neprilysin activity in NEP-enriched brain membrane fraction of WT mice; assay type: biochemical, mouse (C57Bl/6j); details: 40 μg protein, n = 5
T1 construct: Clear supernatants were used as membrane-extracted fractions; from tissue; host or cells: adult mouse brain without cerebellum, Triton X-100-extracted membrane fraction
T1 sequence (Q61391 1-750): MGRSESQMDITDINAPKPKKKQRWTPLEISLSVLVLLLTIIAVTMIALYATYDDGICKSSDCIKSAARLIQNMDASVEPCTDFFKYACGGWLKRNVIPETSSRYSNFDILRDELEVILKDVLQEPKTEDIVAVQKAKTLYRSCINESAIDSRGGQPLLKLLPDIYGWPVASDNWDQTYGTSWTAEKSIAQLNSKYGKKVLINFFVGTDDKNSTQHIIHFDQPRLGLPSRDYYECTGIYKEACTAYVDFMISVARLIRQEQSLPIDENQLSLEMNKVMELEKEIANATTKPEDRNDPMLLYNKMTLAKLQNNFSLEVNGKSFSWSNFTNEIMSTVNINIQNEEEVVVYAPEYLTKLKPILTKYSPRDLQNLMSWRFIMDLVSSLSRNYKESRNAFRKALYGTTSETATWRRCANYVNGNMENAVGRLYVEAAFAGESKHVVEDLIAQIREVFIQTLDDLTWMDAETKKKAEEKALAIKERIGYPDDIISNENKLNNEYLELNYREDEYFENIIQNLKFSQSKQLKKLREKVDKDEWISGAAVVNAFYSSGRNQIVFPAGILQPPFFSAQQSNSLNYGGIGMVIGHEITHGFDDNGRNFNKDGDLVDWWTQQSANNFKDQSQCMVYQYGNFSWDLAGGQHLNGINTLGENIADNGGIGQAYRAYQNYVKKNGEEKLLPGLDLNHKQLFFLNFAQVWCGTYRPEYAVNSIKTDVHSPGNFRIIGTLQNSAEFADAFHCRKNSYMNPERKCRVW
Protocol: To measure NEP activity in brain tissue, whole brains without cerebellum were dissected from adult mice (C57Bl/6j or 5XFAD) and homogenized with a Teflon-glass homogenizer in five volumes (w/v) of ice-cold lysis buffer containing PBS (pH 7.4), 0.25 M sucrose and protease inhibitor cocktail (Complete™, EDTA-free, Roche Diagnostics, Indianapolis, IN). The homogenates were centrifuged at 9000 × g for 15 min at 4 °C. The supernatants were further centrifuged at 20,000 × g at 4 °C for 20 min. The resulting pellets were solubilized in resuspension buffer containing PBS (pH 7.4) and 1% Triton X-100 for 1 h on ice and again centrifuged at 20,000 × g at 4 °C for 20 min. Clear supernatants were used as membrane-extracted fractions. Protein concentrations of Triton-extracted membrane fractions were determined using the Pierce BCA Protein Assay kit (Thermo Fisher Scientific). The standard assay mixture consisted of membrane fraction containing 40 μg total protein diluted in 40 μl of dilution buffer, 10 μl of testing compound (NL1, neurolide or vehicle), and 50 μl of NEP substrate (5-FAM/QXL; Anaspec) in a total volume of 100 μl. The reaction was initiated by adding substrate to the assay mixture. […] Positive and negative controls were set up according to the manufacturer’s protocol (Anaspec). Fluorescence was measured at Ex/Em = 485/535 nm every 20 min for 2 h. The data were expressed as percentage of relative activity of neprilysin.

[2] = biological target: T2, Aβ1-42 (Homo sapiens, UniProt P05067); assay: Aβ1-42 aggregation assay (thioflavin T fluorescence); details: 8 days, 50 mM Tris pH 7.4, ThT 5 μM, triplicates, slopes compared with Aβ alone
T2 construct: Aβ1-42, at a final concentration of 75 μM (pH 7.4); purchased Bachem AG (Bubendorf, Switzerland) or Schafer-N; host or cells: synthetic peptide
Protocol: Aβ1-42 was dissolved in sterile deionized water to a final concentration of 1 mM. Then, the peptide was subjected to a basic shock by adding 2 M NaOH to pH 12 followed by neutralization with 1 M HCl. Aβ1-42, at a final concentration of 75 μM (pH 7.4) either alone or in combination with NL1 (1 μM), neurolide (10 μM), or NLp7 (10 μM), was loaded in triplicates on 96-well plate. Immediately after mixing the samples, thioflavin T (5 μM, ThT; Sigma-Aldrich), dissolved in the aggregation buffer (50 mM Tris, pH 7.4), was added to wells and plate was incubated at 37 °C for 8 days. The formation of beta-amyloid aggregates was monitored first for 210 min and then every 24 h by recording changes in ThT fluorescence at excitation/emission (Ex/Em) = 440/482 nm.

[3] = biological target: T3, recombinant neprilysin (NEP) (Homo sapiens, UniProt P08473); assay: Neprilysin activity assay with recombinant enzyme (SensoLyte 520); assay type: biochemical; details: four to five independent experiments; for activity of recombinant NEP: dose-dependent, NL1 0.1, 0.3, 1, 3 μM, neurolide 1, 5, 10, 100 μM, 5-FAM/QXL substrate, Ex/Em 485/535 nm, 2 h
T3 construct: purchased Anaspec, Fremont, California, USA (SensoLyte 520 Neprilysin Activity Assay Kit)
Protocol: NEP activity was measured using the SensoLyte 520 Neprilysin Activity Assay Kit *Fluorimetric* (Anaspec, Fremont, California, USA) following the protocol provided by the manufacturer. Briefly, Aβ1-42 was dissolved in anhydrous DMSO to a stock concentration of 5 mM, followed by dilutions in assay buffer (100 μM, 50 μM, and 5 μM). Both NL1 (3 μM, 1 μM, 0.3 μM, 0.1 μM) and neurolide (100, 10, 5, and 1 μM) were dissolved in assay buffer. Randomly selected two additional NL1-derived peptides, NLp4, and NLp7 (5 μM, Table 1), were included in the analysis. The NEP solution (40 μl) was mixed with 10 μl of either NL1 or peptides and supplemented with 50 μl of NEP substrate (5-FAM/QXL), and the final mixture was incubated in black optical-bottom 96-well plate (Nunc, Rochester, New York, USA). In co-stimulation experiments, Aβ1-42, prepared as described above, was added to the solution in final concentrations either 0.5 μM or 5 μM. The fluorescence signal was recorded at Ex/Em = 485/535 nm every 20 min for 2 h. The data are presented as the relative activity of NEP alone.

T3 sequence (P08473 whole entry): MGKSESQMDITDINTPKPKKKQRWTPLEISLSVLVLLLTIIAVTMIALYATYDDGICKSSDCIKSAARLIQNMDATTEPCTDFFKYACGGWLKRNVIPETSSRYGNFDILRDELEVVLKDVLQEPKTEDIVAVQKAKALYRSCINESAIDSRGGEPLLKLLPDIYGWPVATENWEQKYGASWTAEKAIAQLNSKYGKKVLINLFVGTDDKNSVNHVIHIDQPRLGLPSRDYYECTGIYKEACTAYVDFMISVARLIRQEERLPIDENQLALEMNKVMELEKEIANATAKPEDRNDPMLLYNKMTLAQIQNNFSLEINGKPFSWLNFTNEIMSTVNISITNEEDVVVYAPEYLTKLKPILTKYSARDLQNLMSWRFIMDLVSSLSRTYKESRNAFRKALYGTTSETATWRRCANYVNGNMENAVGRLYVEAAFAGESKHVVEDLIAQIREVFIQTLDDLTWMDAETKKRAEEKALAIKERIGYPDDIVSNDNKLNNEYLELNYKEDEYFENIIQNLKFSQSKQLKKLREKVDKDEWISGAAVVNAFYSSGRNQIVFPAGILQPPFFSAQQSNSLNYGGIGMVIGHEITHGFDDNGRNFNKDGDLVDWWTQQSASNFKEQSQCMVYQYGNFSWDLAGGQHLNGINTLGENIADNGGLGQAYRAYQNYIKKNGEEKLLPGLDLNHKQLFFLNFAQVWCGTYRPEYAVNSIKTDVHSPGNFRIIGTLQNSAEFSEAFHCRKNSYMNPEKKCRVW
T2 sequence (P05067 672-713): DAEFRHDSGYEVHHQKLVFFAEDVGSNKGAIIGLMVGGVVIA

| Molecule | activity of brain-derived NEP ([1]; neurolide 10 μM) | development of ThT fluorescence (Aβ aggregation) ([2]; 75 μM Aβ1-42 + 10 μM peptide, 37 °C) | activity of recombinant NEP [3] | activity of recombinant NEP in the presence of Aβ1-42 ([3]; neurolide 10 μM with Aβ1-42 at 0.5 μM or 5 μM) | activity of brain-derived NEP ([1]; sNL1 0.3 μM) | rise of ThT fluorescence (Aβ aggregation) ([2]; 75 μM Aβ1-42 + 1 μM sNL1, 37 °C, Ex/Em 440/482 nm) |
| --- | --- | --- | --- | --- | --- | --- |
| I: SEGNRWSNSTKGLFQRAKK-NH2 / II: SEGNRWSNSTKGLFQRAK / III: SEGNRWSNSTKGLFQRA / IV: SEGNRWSNSTKGLFQRA (amide I:18-IV:C, I:19-II:C, II:18-III:C; C-terminus assumed) [neurolide] | significantly decreased | attenuate Aβ peptide aggregation | significantly inhibited | significantly inhibited |  |  |
| NL1: recombinant rat neuroligin-1, soluble ectodomain (R&D systems) (protein, UniProt Q62765 46-697, looked up, extracellular domain) extracellular domain: QKLDDVDPLVTTNFGKIRGIKKELNNEILGPVIQFLGVPYAAPPTGEHRFQPPEPPSPWSDIRNATQFAPVCPQNIIDGRLPEVMLPVWFTNNLDVVSSYVQDQSEDCLYLNIYVPTEDVKRISKECARKPGKKICRKGDIRDSGGPKPVMVYIHGGSYMEGTGNLYDGSVLASYGNVIVITVNYRLGVLGFLSTGDQAAKGNYGLLDLIQALRWTSENIGFFGGDPLRITVFGSGAGGSCVNLLTLSHYSEGNRWSNSTKGLFQRAIAQSGTALSSWAVSFQPAKYARILATKVGCNVSDTVELVECLQKKPYKELVDQDVQPARYHIAFGPVIDGDVIPDDPQILMEQGEFLNYDIMLGVNQGEGLKFVENIVDSDDGVSASDFDFAVSNFVDNLYGYPEGKDVLRETIKFMYTDWADRHNPETRRKTLLALFTDHQWVAPAVATADLHSNFGSPTYFYAFYHHCQTDQVPAWADAAHGDEVPYVLGIPMIGPTELFPCNFSKNDVMLSAVVMTYWTNFAKTGDPNQPVPQDTKFIHTKPNRFEEVAWTRYSQKDQLYLHIGLKPRVKEHYRANKVNLWLELVPHLHNLNDISQYTSTTTKVPSTDITLRPTRKNSTPVTSAFPTAKQDDPKQQPSPFSVDQRDYSTELS |  |  | significantly inhibited |  | significantly decreased | significantly decreased |
